Laboratory results as given in US10238658B2, “1-pyrazolyl-3-(4-((2-anilinopyrimidin-4-yl) oxy) napththalen-1-yl) ureas as p38 MAP kinase inhibitors” (Respivert Limited, priority 2011, dated 2019).

Key:
[1] = system: TNFα; test: LPS-stimulated TNFα production in sputum macrophages from COPD; type: cell-based; conditions: Homo sapiens, Macrophage
Procedure: Patients with COPD were inhaled with a nebulised solution of 3% (w/v) hypertonic saline using an ultrasonic nebuliser (Devilbiss, Carthage, Mo.) with tidal breathing for 5 min. This procedure was repeated a maximum of three times until enough sputum was obtained. The sputum samples were homogenized and mixed vigorously using a vortex mixer in 0.02% v/v dithiothreitol (DTT) solution. The samples were re-suspended in PBS (40 mL) followed by centrifugation at 1500 rpm at 4° C. for 10 min to obtain sputum cell pellets. The pellets were washed twice with PBS (40 mL). The sputum cells were then re-suspended in macrophage serum-free medium (macrophage-SFM, Life technologies, Paisley, UK; to achieve 2×10^6/well in a 24 well plate) containing 20 U/mL penicillin, 0.02 mg/mL streptomycin and 5 μg/mL amphotericin B and seeded on high bound 96-well plate, followed by incubation for 2 hr at 37° C. and at 5% CO2 to allow the macrophages to attach to the bottom of the plate. The cells on the plate were washed with fresh macrophage-SFM (200 μL/well) to remove neutrophils and other contaminated cells. The adherent cells (mainly sputum macrophages) on the plate were used for further analysis. Sputum induction and isolation were conducted in Quintiles Drug Research Unit at Guys Hospital and ethics approval and written informed consent was obtained by Quintiles.
Where appropriate, 1 μL of a solution containing either the test compound or reference article at the stated concentrations or alternatively 1 μL of DMSO as the vehicle control was added to each well (200 μL in media) and the cells were incubated for 2 hr. […] After washing with 200 uL wash buffer per well, the beads were resuspended in sheath fluid (150 μL) and analyzed immediately. The level of each analyte in the supernatant was calculated using Xcel Fit software with a 4 or 5-parameter equation using each standard curve. The inhibitions of each cytokine production were calculated at each concentration by comparison with vehicle control. The IC50 values were determined from concentration-inhibition curves using XL-Fit (idbs, Guildford, UK)

[2] = system: Balb/c mice; test: LPS-induced neutrophil accumulation in mice; type: in vivo, mouse
Procedure: […] At T=0, mice were placed into an exposure chamber and exposed to LPS (7.0 mL, 0.5 mg/mL solution in PBS) for 30 min). After a further 8 hr the animals were anesthetized, their tracheas cannulated and BALF extracted by infusing and then withdrawing from their lungs 1.0 mL of PBS via the tracheal catheter. Total and differential white cell counts in the BALF samples were measured using a Neubaur haemocytometer. Cytospin smears of the BALF samples were prepared by centrifugation at 200 rpm for 5 min at RT and stained using a DiffQuik stain system (Dade Behring). Cells were counted using oil immersion microscopy. Data for neutrophil numbers in BAL are shown as mean ±S.E.M. (standard error of the mean). The percentage inhibition of neutrophil accumulation was calculated for each treatment relative to vehicle treatment,

Cc1ccc(-n2nc(C(C)(C)C)cc2NC(=O)Nc2ccc(Oc3ccnc(Nc4ccccc4)n3)c3ccccc23)cc1 [Example 1, 1-(3-(tert-Butyl)-1-(p-tolyl)-1H-pyrazol-5-yl)-3-(4-(2-(phenylamino)pyrimidin-4-yloxy)naphthalen-1-yl)urea]
IC50 ([1]; COPD patients, LPS): 17 nM | Emax at 0.1 µg/mL ([1]; read-out: TNFα E max, sputum macrophage): 86% | % inhibition of neutrophil numbers in BALF ([2]; 0.05 mg/mL intra tracheal, pre-dose 2 hr): 18% | % inhibition of neutrophil numbers in BALF ([2]; 0.2 mg/mL intra tracheal, pre-dose 2 hr): 48% | % inhibition of neutrophil numbers in BALF ([2]; 1.0 mg/mL intra tracheal, pre-dose 2 hr): 77% | % inhibition of neutrophil numbers in BALF ([2]; 1.0 mg/mL intra tracheal, pre-dose 8 hr): 48% | % inhibition of neutrophil numbers in BALF ([2]; 1.0 mg/mL intra tracheal, pre-dose 12 hr): 4% | LPS-induced neutrophil accumulation, effect in words ([2]; mice): dose dependent inhibition
